Assay: Evaluation of conversion rate to active form in buffer solution (Experimental Example 1)
Type: physicochemical
Conditions: for Alvocidib amount produced, after subtracting the 28.2% Alvocidib of the sample (Table 36-2) / Production rate of Alvocidib / Residual rate: 37° C.; for Production rate of Alvocidib / Residual rate: 25 umol/L in buffer solution
Outline: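 Conversion to Alvocidib and loss of parent were followed by HPLC over 3 h (samples at 0, 0.5, 1, 2, 3 h). Incubations used 25 umol/L compound at 37 °C across pH 5.0–7.4, in 50 mM citrate below pH 6.0 and 50 mM phosphate from pH 6.0 upward.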

## CN1CC[C@H](c2c(OC(=O)N(CCCC(F)(F)F)CC3CCCCN3)cc(O)c3c(=O)cc(-c4ccccc4Cl)oc23)[C@H](O)C1 (stereo partly drawn) [Example 14, 2-(2-chlorophenyl)-5-hydroxy-8-[(3S,4R)-3-hydroxy-1-methylpiperidin-4-yl]-4-oxo-4H-1-benzopyran-7-yl [(piperidin-2-yl)methyl](4,4,4-trifluorobutyl)carbamate]
pH5.0, 0 hr
  Alvocidib amount produced, after subtracting the 28.2% Alvocidib of the sample (Table 36-2): 1.0%
  Production rate of Alvocidib: 29.2%
  Residual rate: 56.6%
pH 5, 37° C., up to 2 or 3 hours
  Stability in buffer solution at pH 5: stable
pH5.0, 0.5 hr
  Alvocidib amount produced, after subtracting the 28.2% Alvocidib of the sample (Table 36-2): 1.7%
  Production rate of Alvocidib: 29.9%
  Residual rate: 54.6%
pH5.0, 1 hr
  Alvocidib amount produced, after subtracting the 28.2% Alvocidib of the sample (Table 36-2): 3.5%
  Production rate of Alvocidib: 31.7%
  Residual rate: 53.0%
pH5.0, 2 hr
  Alvocidib amount produced, after subtracting the 28.2% Alvocidib of the sample (Table 36-2): 4.9%
  Production rate of Alvocidib: 33.1%
  Residual rate: 51.0%
pH5.0, 3 hr
  Alvocidib amount produced, after subtracting the 28.2% Alvocidib of the sample (Table 36-2): 5.2%
  Production rate of Alvocidib: 33.4%
  Residual rate: 52.7%
pH5.5, 0 hr
  Alvocidib amount produced, after subtracting the 28.2% Alvocidib of the sample (Table 36-2): 0.8%
  Production rate of Alvocidib: 29.0%
  Residual rate: 57.5%
pH5.5, 0.5 hr
  Alvocidib amount produced, after subtracting the 28.2% Alvocidib of the sample (Table 36-2): 2.7%
  Production rate of Alvocidib: 30.9%
  Residual rate: 55.8%
pH5.5, 1 hr
  Alvocidib amount produced, after subtracting the 28.2% Alvocidib of the sample (Table 36-2): 4.5%
  Production rate of Alvocidib: 32.7%
  Residual rate: 54.3%
pH5.5, 2 hr
  Alvocidib amount produced, after subtracting the 28.2% Alvocidib of the sample (Table 36-2): 7.2%
  Production rate of Alvocidib: 35.4%
  Residual rate: 48.6%
pH5.5, 3 hr
  Alvocidib amount produced, after subtracting the 28.2% Alvocidib of the sample (Table 36-2): 9.7%
  Production rate of Alvocidib: 37.9%
  Residual rate: 47.7%
pH6.0, 0 hr
  Alvocidib amount produced, after subtracting the 28.2% Alvocidib of the sample (Table 36-2): 0.9%
  Production rate of Alvocidib: 29.1%
  Residual rate: 55.8%
pH6.0, 0.5 hr
  Alvocidib amount produced, after subtracting the 28.2% Alvocidib of the sample (Table 36-2): 6.2%
  Production rate of Alvocidib: 34.4%
  Residual rate: 49.7%
pH6.0, 1 hr
  Alvocidib amount produced, after subtracting the 28.2% Alvocidib of the sample (Table 36-2): 10.9%
  Production rate of Alvocidib: 39.1%
  Residual rate: 44.8%
pH6.0, 2 hr
  Alvocidib amount produced, after subtracting the 28.2% Alvocidib of the sample (Table 36-2): 22.0%
  Production rate of Alvocidib: 50.2%
  Residual rate: 31.8%
pH6.0, 3 hr
  Alvocidib amount produced, after subtracting the 28.2% Alvocidib of the sample (Table 36-2): 27.7%
  Production rate of Alvocidib: 55.9%
  Residual rate: 24.5%
pH6.5, 0 hr
  Alvocidib amount produced, after subtracting the 28.2% Alvocidib of the sample (Table 36-2): 3.4%
  Production rate of Alvocidib: 31.6%
  Residual rate: 52.2%
pH6.5, 0.5 hr
  Alvocidib amount produced, after subtracting the 28.2% Alvocidib of the sample (Table 36-2): 17.6%
  Production rate of Alvocidib: 45.8%
  Residual rate: 35.2%
pH6.5, 1 hr
  Alvocidib amount produced, after subtracting the 28.2% Alvocidib of the sample (Table 36-2): 28.9%
  Production rate of Alvocidib: 57.1%
  Residual rate: 22.9%
pH6.5, 2 hr
  Alvocidib amount produced, after subtracting the 28.2% Alvocidib of the sample (Table 36-2): 34.8%
  Production rate of Alvocidib: 63.0%
  Residual rate: 14.0%
pH6.5, 3 hr
  Alvocidib amount produced, after subtracting the 28.2% Alvocidib of the sample (Table 36-2): 44.4%
  Production rate of Alvocidib: 72.6%
  Residual rate: 5.1%
pH7.0, 0 hr
  Alvocidib amount produced, after subtracting the 28.2% Alvocidib of the sample (Table 36-2): 2.5%
  Production rate of Alvocidib: 30.7%
  Residual rate: 53.4%
pH7.0, 0.5 hr
  Alvocidib amount produced, after subtracting the 28.2% Alvocidib of the sample (Table 36-2): 33.8%
  Production rate of Alvocidib: 62.0%
  Residual rate: 16.3%
pH7.0, 1 hr
  Alvocidib amount produced, after subtracting the 28.2% Alvocidib of the sample (Table 36-2): 39.8%
  Production rate of Alvocidib: 68.0%
  Residual rate: 8.4%
pH7.0, 2 hr
  Alvocidib amount produced, after subtracting the 28.2% Alvocidib of the sample (Table 36-2): 47.3%
  Production rate of Alvocidib: 75.5%
  Residual rate: 1.1%
pH7.0, 3 hr
  Alvocidib amount produced, after subtracting the 28.2% Alvocidib of the sample (Table 36-2): 47.0%
  Production rate of Alvocidib: 75.2%
  Residual rate: 0.4%
pH7.4, 0 hr
  Alvocidib amount produced, after subtracting the 28.2% Alvocidib of the sample (Table 36-2): 7.7%
  Production rate of Alvocidib: 35.9%
  Residual rate: 45.8%
pH 7.4, 37° C., up to 3 hours
  Conversion to Alvocidib at pH 7.4: rapidly converted to Alvocidib
pH7.4, 0.5 hr
  Alvocidib amount produced, after subtracting the 28.2% Alvocidib of the sample (Table 36-2): 43.4%
  Production rate of Alvocidib: 71.6%
  Residual rate: 4.6%
pH7.4, 1 hr
  Alvocidib amount produced, after subtracting the 28.2% Alvocidib of the sample (Table 36-2): 48.4%
  Production rate of Alvocidib: 76.6%
  Residual rate: 0.7%
pH7.4, 2 hr
  Alvocidib amount produced, after subtracting the 28.2% Alvocidib of the sample (Table 36-2): 47.4%
  Production rate of Alvocidib: 75.6%
  Residual rate: 0.2%
pH7.4, 3 hr
  Alvocidib amount produced, after subtracting the 28.2% Alvocidib of the sample (Table 36-2): 47.5%
  Production rate of Alvocidib: 75.7%
  Residual rate: 0.3%
